Laboratory results from PMC12711892, “A genome-wide CRISPR screen identifies GRA38 as a key regulator of lipid homeostasis during Toxoplasma gondii adaptation to lipid-rich conditions” (Nature Communications, 2025).

Molecular target: T1, GRA38-6xHis (Toxoplasma gondii, UniProt A0A7J6JXD8)
T1 construct: gene TGRH88_051660; signal peptide (first 23 residues) removed; C-terminal 6xHis in pET-29b(+), codon-optimised, E. coli BL21; tag kept
Test: malachite green phosphate release assay (PAP activity)
Format: biochemical
Conditions: read-out: % inhibition at 1 mM

T1 sequence (A0A7J6JXD8 entry or part of it): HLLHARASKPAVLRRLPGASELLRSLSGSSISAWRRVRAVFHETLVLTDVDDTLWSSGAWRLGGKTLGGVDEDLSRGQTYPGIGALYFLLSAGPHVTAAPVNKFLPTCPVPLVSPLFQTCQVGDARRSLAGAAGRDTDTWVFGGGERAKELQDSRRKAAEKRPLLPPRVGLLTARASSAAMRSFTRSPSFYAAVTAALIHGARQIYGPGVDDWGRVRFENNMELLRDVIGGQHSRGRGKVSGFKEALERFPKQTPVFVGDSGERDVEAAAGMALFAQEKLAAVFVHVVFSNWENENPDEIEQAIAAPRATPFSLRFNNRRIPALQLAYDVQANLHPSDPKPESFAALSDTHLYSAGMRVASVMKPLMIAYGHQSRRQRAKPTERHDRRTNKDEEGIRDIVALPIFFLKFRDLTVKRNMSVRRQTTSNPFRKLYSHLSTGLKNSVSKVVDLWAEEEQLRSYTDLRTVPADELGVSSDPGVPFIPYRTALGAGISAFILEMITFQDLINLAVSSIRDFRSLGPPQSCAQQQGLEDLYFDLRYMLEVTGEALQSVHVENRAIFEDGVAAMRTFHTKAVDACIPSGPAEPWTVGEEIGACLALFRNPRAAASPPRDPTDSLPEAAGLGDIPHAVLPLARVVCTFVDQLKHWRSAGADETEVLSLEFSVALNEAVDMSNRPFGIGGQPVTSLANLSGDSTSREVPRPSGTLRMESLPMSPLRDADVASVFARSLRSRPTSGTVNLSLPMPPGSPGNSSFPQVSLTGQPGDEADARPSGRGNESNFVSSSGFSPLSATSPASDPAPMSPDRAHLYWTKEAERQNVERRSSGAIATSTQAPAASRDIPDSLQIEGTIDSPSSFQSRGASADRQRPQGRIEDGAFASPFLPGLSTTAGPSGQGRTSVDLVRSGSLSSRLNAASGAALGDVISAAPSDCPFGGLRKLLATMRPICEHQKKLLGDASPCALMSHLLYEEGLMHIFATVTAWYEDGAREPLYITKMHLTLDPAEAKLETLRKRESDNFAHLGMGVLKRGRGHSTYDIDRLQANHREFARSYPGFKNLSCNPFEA

Compound: O=CC(=O)c1ccccc1 [phenylglyoxal]
- inhibition at 1000 µM: 45%
